According to paper PMC7998669, “7-(2-Anilinopyrimidin-4-yl)-1-benzazepin-2-ones Designed by a “Cut and Glue” Strategy Are Dual Aurora A/VEGF-R Kinase Inhibitors” (Molecules, 2021):

Legend:
Experiment in all cases: radiometric 33PanQinase protein kinase assay
Format in all cases: biochemical
Settings in all cases: 1 µM ATP
EPHB4 = target: T1, EPHB4 (Homo sapiens, UniProt P54760)
T1 construct: host or cells: Sf9 (baculovirus)

ERBB2 = target: T2, ERBB2 (Homo sapiens, UniProt P04626)
T2 construct: host or cells: Sf9 (baculovirus)

PDGFR-beta = target: T3, PDGFR-beta (Homo sapiens, UniProt P09619)
T3 construct: host or cells: Sf9 (baculovirus)
T3 sequence (P09619 33-1106): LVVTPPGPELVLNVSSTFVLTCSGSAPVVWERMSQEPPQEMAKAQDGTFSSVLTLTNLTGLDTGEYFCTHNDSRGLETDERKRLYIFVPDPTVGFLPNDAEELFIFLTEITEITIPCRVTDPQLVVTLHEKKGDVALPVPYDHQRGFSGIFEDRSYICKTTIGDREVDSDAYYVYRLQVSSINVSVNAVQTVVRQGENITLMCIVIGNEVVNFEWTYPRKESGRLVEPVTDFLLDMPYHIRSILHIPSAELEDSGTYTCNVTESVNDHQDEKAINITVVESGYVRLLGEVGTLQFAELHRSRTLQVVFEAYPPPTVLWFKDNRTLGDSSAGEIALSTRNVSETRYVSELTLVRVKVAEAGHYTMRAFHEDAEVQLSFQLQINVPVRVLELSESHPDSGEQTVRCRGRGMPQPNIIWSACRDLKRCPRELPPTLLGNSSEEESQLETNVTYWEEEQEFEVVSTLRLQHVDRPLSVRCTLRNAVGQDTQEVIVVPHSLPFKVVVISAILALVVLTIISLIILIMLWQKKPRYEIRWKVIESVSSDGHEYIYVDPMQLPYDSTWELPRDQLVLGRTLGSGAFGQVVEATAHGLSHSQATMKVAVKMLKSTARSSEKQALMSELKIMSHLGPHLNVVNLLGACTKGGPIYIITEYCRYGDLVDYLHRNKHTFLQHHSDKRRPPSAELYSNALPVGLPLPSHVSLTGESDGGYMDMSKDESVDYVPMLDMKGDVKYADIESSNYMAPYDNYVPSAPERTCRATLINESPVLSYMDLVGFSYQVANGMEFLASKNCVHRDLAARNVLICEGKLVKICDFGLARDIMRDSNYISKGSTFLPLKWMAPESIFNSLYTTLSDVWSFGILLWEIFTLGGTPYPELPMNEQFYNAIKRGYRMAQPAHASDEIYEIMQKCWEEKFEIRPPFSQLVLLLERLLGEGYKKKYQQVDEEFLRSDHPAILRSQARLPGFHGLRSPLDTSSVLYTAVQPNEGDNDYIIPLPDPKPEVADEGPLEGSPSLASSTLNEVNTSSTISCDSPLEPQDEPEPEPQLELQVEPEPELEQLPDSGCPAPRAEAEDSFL

PLK1 = target: T4, PLK1 (Homo sapiens, UniProt P53350)
T4 construct: host or cells: Sf9 (baculovirus)
T4 sequence (P53350 whole entry): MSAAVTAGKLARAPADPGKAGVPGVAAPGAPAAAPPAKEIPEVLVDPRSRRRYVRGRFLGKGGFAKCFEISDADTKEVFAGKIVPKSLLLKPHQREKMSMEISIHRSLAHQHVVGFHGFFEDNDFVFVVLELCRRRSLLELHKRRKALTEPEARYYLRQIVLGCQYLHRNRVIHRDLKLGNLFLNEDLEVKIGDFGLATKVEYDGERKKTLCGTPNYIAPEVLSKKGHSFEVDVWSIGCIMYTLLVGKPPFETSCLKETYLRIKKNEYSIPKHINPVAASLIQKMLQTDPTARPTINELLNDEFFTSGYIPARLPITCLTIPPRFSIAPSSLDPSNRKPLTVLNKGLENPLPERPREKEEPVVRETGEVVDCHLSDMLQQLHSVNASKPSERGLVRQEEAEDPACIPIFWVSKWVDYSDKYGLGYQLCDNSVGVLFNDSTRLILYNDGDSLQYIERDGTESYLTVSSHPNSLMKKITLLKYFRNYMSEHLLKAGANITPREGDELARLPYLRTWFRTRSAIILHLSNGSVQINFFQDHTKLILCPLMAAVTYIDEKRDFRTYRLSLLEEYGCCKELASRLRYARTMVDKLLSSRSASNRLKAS

CDK4/CycD1 = target: T5, CDK4/CycD1 (Homo sapiens, UniProt P11802)
T5 construct: host or cells: Sf9 (baculovirus)
T5 sequence (P11802 whole entry): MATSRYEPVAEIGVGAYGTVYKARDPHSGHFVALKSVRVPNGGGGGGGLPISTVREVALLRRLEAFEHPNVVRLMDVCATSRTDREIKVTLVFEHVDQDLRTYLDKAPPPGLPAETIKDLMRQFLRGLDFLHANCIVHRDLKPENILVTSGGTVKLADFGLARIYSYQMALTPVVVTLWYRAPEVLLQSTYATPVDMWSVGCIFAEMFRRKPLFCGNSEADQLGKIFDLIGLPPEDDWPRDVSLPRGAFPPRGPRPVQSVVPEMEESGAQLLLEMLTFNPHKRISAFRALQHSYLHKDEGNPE
T5 sequence (P24385 whole entry partner): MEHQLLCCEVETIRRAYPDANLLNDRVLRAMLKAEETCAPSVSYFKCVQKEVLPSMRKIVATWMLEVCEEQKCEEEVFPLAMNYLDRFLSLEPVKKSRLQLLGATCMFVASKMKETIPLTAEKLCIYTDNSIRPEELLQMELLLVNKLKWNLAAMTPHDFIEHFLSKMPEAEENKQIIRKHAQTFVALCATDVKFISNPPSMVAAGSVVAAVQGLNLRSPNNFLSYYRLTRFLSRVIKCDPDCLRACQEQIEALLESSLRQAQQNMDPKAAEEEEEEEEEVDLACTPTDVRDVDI

TIE2 = target: T6, TIE2 (Homo sapiens, UniProt Q02763)
T6 construct: host or cells: Sf9 (baculovirus)
T6 sequence (Q02763 23-1124): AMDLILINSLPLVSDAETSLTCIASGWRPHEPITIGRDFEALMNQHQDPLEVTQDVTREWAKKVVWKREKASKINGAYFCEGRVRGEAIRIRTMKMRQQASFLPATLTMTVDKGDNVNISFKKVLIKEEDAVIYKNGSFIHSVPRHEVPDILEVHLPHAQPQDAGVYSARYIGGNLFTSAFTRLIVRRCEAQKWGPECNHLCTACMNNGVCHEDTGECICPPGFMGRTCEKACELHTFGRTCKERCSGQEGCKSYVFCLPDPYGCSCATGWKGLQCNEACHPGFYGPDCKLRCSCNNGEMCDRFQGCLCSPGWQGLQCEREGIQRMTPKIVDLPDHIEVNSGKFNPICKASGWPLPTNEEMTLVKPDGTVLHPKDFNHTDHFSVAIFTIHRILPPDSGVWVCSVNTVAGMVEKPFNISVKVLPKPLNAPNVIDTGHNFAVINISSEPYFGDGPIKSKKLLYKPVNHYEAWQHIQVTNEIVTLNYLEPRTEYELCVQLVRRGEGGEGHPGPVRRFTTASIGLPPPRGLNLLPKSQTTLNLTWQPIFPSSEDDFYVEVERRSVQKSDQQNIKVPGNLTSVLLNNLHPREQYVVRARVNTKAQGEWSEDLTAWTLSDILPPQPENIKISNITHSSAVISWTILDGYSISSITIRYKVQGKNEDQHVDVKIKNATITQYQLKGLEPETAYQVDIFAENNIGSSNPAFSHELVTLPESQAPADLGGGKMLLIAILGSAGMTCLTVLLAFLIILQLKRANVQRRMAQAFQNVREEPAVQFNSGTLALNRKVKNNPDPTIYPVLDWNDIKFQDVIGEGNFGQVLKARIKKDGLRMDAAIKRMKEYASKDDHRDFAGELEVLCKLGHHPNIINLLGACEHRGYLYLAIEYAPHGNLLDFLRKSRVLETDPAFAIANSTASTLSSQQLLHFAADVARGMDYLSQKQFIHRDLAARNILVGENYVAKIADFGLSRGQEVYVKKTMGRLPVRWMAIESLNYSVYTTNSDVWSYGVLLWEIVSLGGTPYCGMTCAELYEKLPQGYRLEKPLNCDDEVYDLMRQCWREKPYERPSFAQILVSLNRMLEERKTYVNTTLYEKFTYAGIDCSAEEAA

FAK = target: T7, FAK (Homo sapiens, UniProt Q05397)
T7 construct: host or cells: Sf9 (baculovirus)
T7 sequence (Q05397 whole entry): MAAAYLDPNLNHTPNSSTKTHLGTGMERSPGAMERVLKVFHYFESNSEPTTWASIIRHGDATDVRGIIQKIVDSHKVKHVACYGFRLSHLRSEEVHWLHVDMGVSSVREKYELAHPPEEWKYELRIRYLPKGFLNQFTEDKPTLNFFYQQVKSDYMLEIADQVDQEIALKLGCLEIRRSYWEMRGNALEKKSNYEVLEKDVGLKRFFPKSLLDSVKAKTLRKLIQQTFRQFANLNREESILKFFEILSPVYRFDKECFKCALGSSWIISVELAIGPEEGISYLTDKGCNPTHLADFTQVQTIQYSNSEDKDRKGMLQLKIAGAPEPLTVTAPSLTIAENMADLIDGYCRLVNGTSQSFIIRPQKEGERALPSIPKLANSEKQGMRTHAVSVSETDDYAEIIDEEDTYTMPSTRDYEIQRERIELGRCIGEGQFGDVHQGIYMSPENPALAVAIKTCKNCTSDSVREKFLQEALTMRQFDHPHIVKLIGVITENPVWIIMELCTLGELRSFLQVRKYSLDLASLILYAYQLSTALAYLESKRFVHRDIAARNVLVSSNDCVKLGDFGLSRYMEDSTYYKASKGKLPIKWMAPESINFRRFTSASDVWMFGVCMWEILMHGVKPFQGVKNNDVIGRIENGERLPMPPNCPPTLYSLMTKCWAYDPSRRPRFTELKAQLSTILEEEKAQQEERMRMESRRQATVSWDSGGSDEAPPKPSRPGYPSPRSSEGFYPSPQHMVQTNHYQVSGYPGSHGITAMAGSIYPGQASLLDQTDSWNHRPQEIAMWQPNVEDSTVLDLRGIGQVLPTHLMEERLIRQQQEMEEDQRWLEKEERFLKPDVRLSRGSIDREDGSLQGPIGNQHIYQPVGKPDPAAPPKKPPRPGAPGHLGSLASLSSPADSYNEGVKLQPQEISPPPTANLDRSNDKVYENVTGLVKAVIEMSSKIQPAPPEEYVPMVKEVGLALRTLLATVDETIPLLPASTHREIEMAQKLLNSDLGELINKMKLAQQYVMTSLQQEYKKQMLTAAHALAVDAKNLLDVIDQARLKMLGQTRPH

PDK1 = target: T8, PDK1 (Homo sapiens, UniProt O15530)
T8 construct: host or cells: Sf9 (baculovirus)
T8 sequence (O15530 whole entry): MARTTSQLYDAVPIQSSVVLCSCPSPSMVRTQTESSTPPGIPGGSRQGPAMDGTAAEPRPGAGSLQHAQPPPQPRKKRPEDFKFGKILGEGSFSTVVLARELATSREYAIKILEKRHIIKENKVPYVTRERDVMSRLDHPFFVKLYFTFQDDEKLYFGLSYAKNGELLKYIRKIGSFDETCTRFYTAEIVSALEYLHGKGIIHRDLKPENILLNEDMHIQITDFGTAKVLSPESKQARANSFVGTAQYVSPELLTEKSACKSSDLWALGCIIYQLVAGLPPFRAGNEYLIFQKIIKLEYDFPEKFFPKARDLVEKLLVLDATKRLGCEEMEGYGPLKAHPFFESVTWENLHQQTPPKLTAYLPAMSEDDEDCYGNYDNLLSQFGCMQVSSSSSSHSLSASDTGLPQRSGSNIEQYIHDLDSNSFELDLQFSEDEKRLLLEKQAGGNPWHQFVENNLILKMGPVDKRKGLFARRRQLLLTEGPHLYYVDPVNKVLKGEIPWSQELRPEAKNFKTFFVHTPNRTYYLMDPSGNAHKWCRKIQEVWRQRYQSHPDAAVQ

CK2-alpha1 = target: T9, CK2-alpha1 (Homo sapiens, UniProt P68400)
T9 construct: host or cells: Sf9 (baculovirus)

EGF-R = target: T10, EGF-R (Homo sapiens, UniProt P00533)
T10 construct: host or cells: Sf9 (baculovirus)

MET = target: T11, MET (Homo sapiens, UniProt P08581)
T11 construct: host or cells: Sf9 (baculovirus)

ARK5 = target: T12, ARK5 (Homo sapiens, UniProt O60285)
T12 construct: host or cells: Sf9 (baculovirus)

FLT3 = target: T13, FLT3 (Homo sapiens, UniProt P36888)
T13 construct: host or cells: Sf9 (baculovirus)

PAK4 = target: T14, PAK4 (Homo sapiens, UniProt O96013)
T14 construct: host or cells: Sf9 (baculovirus)

O=C1CCCc2cc(-c3ccnc(Nc4ccccc4)n3)ccc2N1 [Compound 2a, 7-(2-Anilinopyrimidin-4-yl)-1,3,4,5-tetrahydro-2H-1-benzazepin-2-one]
IC50 (EPHB4): > 100 µM | IC50 (ERBB2): > 100 µM | IC50 (PDGFR-beta): 44 µM | IC50 (PLK1): > 100 µM | IC50 (CDK4/CycD1): 19 µM | IC50 (TIE2): 19 µM | IC50 (FAK): > 100 µM | IC50 (PDK1): > 100 µM | IC50 (CK2-alpha1): > 100 µM | IC50 (EGF-R): > 100 µM | IC50 (MET): > 100 µM | IC50 (ARK5): > 100 µM | IC50 (FLT3): 16 µM | IC50 (PAK4): > 100 µM
